Data as given in patent US20230159532A1, “PARATHYROID HORMONE (PTH) RECEPTOR ANTAGONISTS AND USES THEREOF” (Crinetics Pharmaceuticals, Inc., priority 2021, published 2023).

Target: T1, human PTHR1 receptor (Homo sapiens, UniProt Q03431)
T1 construct: purchased Eurofins HTS030M
T1 sequence (Q03431 27-593): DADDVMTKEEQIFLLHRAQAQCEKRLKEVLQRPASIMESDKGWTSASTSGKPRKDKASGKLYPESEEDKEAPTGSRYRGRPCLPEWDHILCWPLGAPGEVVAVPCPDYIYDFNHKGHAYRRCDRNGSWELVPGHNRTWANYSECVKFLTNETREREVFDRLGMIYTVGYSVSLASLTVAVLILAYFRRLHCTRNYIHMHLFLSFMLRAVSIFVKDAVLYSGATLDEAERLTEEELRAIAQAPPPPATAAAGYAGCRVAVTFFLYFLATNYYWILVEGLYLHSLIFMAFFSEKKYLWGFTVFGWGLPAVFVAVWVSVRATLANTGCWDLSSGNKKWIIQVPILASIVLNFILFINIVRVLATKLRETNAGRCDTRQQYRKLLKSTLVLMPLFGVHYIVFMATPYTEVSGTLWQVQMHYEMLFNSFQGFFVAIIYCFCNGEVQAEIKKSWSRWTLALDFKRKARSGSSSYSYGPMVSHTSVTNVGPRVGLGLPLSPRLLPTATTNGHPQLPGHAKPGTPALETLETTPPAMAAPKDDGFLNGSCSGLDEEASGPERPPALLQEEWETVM
Assay: Competitive antagonist binding assay for hPTH-R1 (radioactive competition binding, SPA beads)
Conditions: human PTHR1 membranes, [125I]-[Nle8,18,Tyr34]-PTH(1-34) 0.2 nM, 90 minutes at room temperature; read-out: hPTHR1 Ki
In short: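 Human PTHR1 membranes on SPA beads incubated 90 min at room temperature with compound (typically 0-10,000 nM final) and 0.2 nM [125I]-[Nle8,18,Tyr34]-PTH(1-34) in HEPES buffer with MgCl2, CaCl2, BSA, Triton X-100 and protease inhibitors, pH 7.4. Scintillation signal read; Ki values derived.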

Ki, < 100 nM:
CCN1C(=O)N(c2c(F)cc(NCCNCCC(N)=O)cc2F)c2cc(C#N)ccc2-c2cc(Cl)cnc21 [1-161, 3-({2-[(4-{4-chloro-13-cyano-8-ethyl-9-oxo-6,8,10-triazatricyclo[9.4.0.0^2,7]pentadeca-1(11),2(7),3,5,12,14-hexaen-10-yl}-3,5-difluorophenyl)amino]ethyl}amino)propanamide]
CCN1C(=O)N(c2c(F)cc(NCCNCC(N)=O)cc2F)c2cc(C#N)ccc2-c2cc(Cl)cnc21 [1-162, 2-({2-[(4-{4-chloro-13-cyano-8-ethyl-9-oxo-6,8,10-triazatricyclo[9.4.0.0^2,7]pentadeca-1(11),2(7),3,5,12,14-hexaen-10-yl}-3,5-difluorophenyl)amino]ethyl}amino)acetamide]
CC(C)N1C(=O)N(c2c(F)cc(NCCNCCCC(=O)O)cc2F)c2cc(C#N)cc(F)c2-c2cc(F)cnc21 [1-163, 4-{[2-({4-[13-cyano-4,15-difluoro-9-oxo-8-(propan-2-yl)-6,8,10-triazatricyclo[9.4.0.0^2,7]pentadeca-1(15),2(7),3,5,11,13-hexaen-10-yl]-3,5-difluorophenyl}amino)ethyl]amino}butanoic Acid]
CCN1C(=O)N(c2c(F)cc(NCCN3CCC(O)C3)cc2F)c2cc(C#N)ccc2-c2cc(Cl)cnc21 (stereo not drawn) [1-164, 4-chloro-10-(2,6-difluoro-4-{[2-(3-hydroxypyrrolidin-1-yl)ethyl]amino}phenyl)-8-ethyl-9-oxo-6,8,10-triazatricyclo[9.4.0.0^2,7]pentadeca-1(11),2(7),3,5,12,14-hexaene-13-carbonitrile]
CCN1C(=O)N(c2c(F)cc(N[C@@H](C)CNC)cc2F)c2cc(C#N)ccc2-c2cc(Cl)cnc21 [1-165, 4-chloro-10-(2,6-difluoro-4-{[(2S)-1-(methylamino)propan-2-yl]amino}phenyl)-8-ethyl-9-oxo-6,8,10-triazatricyclo[9.4.0.0^2,7]pentadeca-1(11),2(7),3,5,12,14-hexaene-13-carbonitrile]
CCN1C(=O)N(c2c(F)cc(NCCNCCNC(=O)NC)cc2F)c2cc(C#N)ccc2-c2cc(Cl)cnc21 [1-166, 1-[2-({2-[(4-{4-chloro-13-cyano-8-ethyl-9-oxo-6,8,10-triazatricyclo[9.4.0.0^2,7]pentadeca-1(11),2(7),3,5,12,14-hexaen-10-yl}-3,5-difluorophenyl)amino]ethyl}amino)ethyl]-3-methylurea]
CCN1C(=O)N(c2c(F)cc(NCCNCCNC(=O)OC)cc2F)c2cc(C#N)ccc2-c2cc(Cl)cnc21 [1-167, Methyl N-[2-({2-[(4-{4-chloro-13-cyano-8-ethyl-9-oxo-6,8,10-triazatricyclo[9.4.0.0^2,7]pentadeca-1(11),2(7),3,5,12,14-hexaen-10-yl}-3,5-difluorophenyl)amino]ethyl}amino)ethyl]carbamate]
CCN1C(=O)N(c2c(F)cc(NCCNCCNC(C)=O)cc2F)c2cc(C#N)ccc2-c2cc(Cl)cnc21 [1-168, N-[2-({2-[(4-{4-chloro-13-cyano-8-ethyl-9-oxo-6,8,10-triazatricyclo[9.4.0.0^2,7]pentadeca-1(15),2(7),3,5,11,13-hexaen-10-yl}-3,5-difluorophenyl)amino]ethyl}amino)ethyl]acetamide]
CCN1C(=O)N(c2c(F)cc(NCCNC[C@H]3CCC(=O)N3)cc2F)c2cc(C#N)ccc2-c2cc(Cl)cnc21 [1-170, 4-chloro-10-(2,6-difluoro-4-{[2-({[(2R)-5-oxopyrrolidin-2-yl]methyl}amino)ethyl]amino}phenyl)-8-ethyl-9-oxo-6,8,10-triazatricyclo[9.4.0.0^2,7]pentadeca-1(11),2(7),3,5,12,14-hexaene-13-carbonitrile]
CCN1C(=O)N(c2c(F)cc(NCCNC[C@H](O)CO)cc2F)c2cc(C#N)ccc2-c2cc(Cl)cnc21 [1-171, 4-chloro-10-{4-[(2-{[(2S)-2,3-dihydroxypropyl]amino}ethyl)amino]-2,6-difluorophenyl}-8-ethyl-9-oxo-6,8,10-triazatricyclo[9.4.0.0^2,7]pentadeca-1(11),2(7),3,5,12,14-hexaene-13-carbonitrile]
CCN1C(=O)N(c2c(F)cc(NCCNCCNC(=O)NC)cc2F)c2cc(C#N)ccc2-c2cc(F)cnc21 [1-172, 1-[2-({2-[(4-{13-cyano-8-ethyl-4-fluoro-9-oxo-6,8,10-triazatricyclo[9.4.0.0^2,7]pentadeca-1(11),2(7),3,5,12,14-hexaen-10-yl}-3,5-difluorophenyl)amino]ethyl}amino)ethyl]-3-methylurea]
CCN1C(=O)N(c2c(F)cc(NCCN[C@H](C)CO)cc2F)c2cc(C#N)ccc2-c2cc(Cl)cnc21 [1-173, 4-chloro-10-{2,6-difluoro-4-[(2-{[(2R)-1-hydroxypropan-2-yl]amino}ethyl)amino]phenyl}-8-ethyl-9-oxo-6,8,10-triazatricyclo[9.4.0.0^2,7]pentadeca-1(11),2(7),3,5,12,14-hexaene-13-carbonitrile]
CCN1C(=O)N(c2c(F)cc(NCCNC[C@@H]3CCC(=O)N3)cc2F)c2cc(C#N)ccc2-c2cc(Cl)cnc21 [1-174, 4-chloro-10-(2,6-difluoro-4-{[2-({[(2S)-5-oxopyrrolidin-2-yl]methyl}amino)ethyl]amino}phenyl)-8-ethyl-9-oxo-6,8,10-triazatricyclo[9.4.0.0^2,7]pentadeca-1(11),2(7),3,5,12,14-hexaene-13-carbonitrile]
CCN1C(=O)N(c2c(F)cc(NCCNCCCS(=O)(=O)O)cc2F)c2cc(C#N)ccc2-c2cc(Cl)cnc21 [1-175, 3-({2-[(4-{4-chloro-13-cyano-8-ethyl-9-oxo-6,8,10-triazatricyclo[9.4.0.0^2,7]pentadeca-1(11),2(7),3,5,12,14-hexaen-10-yl}-3,5-difluorophenyl)amino]ethyl}amino)propane-1-sulfonic acid]
CCN1C(=O)N(c2c(F)cc(NCCNCC3CCC(=O)N3)cc2F)c2cc(C#N)ccc2-c2cc(Cl)cnc21 (stereo not drawn) [1-176, 4-chloro-10-{2,6-difluoro-4-[(2-{[(5-oxopyrrolidin-2-yl)methyl]amino}ethyl)amino]phenyl}-8-ethyl-9-oxo-6,8,10-triazatricyclo[9.4.0.0^2,7]pentadeca-1(15),2(7),3,5,11,13-hexaene-13-carbonitrile]
CCN1C(=O)N(c2c(F)cc(NCCN[C@@H]3CC[C@@H]3O)cc2F)c2cc(C#N)ccc2-c2cc(Cl)cnc21 [1-177, 4-chloro-10-{2,6-difluoro-4-[(2-{[(1R,2S)-2-hydroxycyclobutyl]amino}ethyl)amino]phenyl}-8-ethyl-9-oxo-6,8,10-triazatricyclo[9.4.0.0^2,7]pentadeca-1(11),2(7),3,5,12,14-hexaene-13-carbonitrile]
CCN1C(=O)N(c2c(F)cc(NCCNCCC(=O)O)cc2F)c2cc(C#N)ccc2-c2cc(Cl)cnc21 [1-178, 3-({2-[(4-{4-chloro-13-cyano-8-ethyl-9-oxo-6,8,10-triazatricyclo[9.4.0.0^2,7]pentadeca-1(11),2(7),3,5,12,14-hexaen-10-yl}-3,5-difluorophenyl)amino]ethyl}amino)propanoic acid]
CCN1C(=O)N(c2c(F)cc(NCCN[C@@H]3CC[C@H]3O)cc2F)c2cc(C#N)ccc2-c2cc(Cl)cnc21 [1-179, 4-chloro-10-{2,6-difluoro-4-[(2-{[(1R,2R)-2-hydroxycyclobutyl]amino}ethyl)amino]phenyl}-8-ethyl-9-oxo-6,8,10-triazatricyclo[9.4.0.0^2,7]pentadeca-1(11),2(7),3,5,12,14-hexaene-13-carbonitrile]
CCN1C(=O)N(c2c(F)cc(NCCNC[C@H](C)O)cc2F)c2cc(C#N)ccc2-c2cc(Cl)cnc21 [1-180, 4-chloro-10-{2,6-difluoro-4-[(2-{[(2S)-2-hydroxypropyl]amino}ethyl)amino]phenyl}-8-ethyl-9-oxo-6,8,10-triazatricyclo[9.4.0.0^2,7]pentadeca-1(11),2(7),3,5,12,14-hexaene-13-carbonitrile]
CCN1C(=O)N(c2c(F)cc(NCCNCCOCCO)cc2F)c2cc(C#N)ccc2-c2cc(Cl)cnc21 [1-181, 4-chloro-10-{2,6-difluoro-4-[(2-{[2-(2-hydroxyethoxy)ethyl]amino}ethyl)amino]phenyl}-8-ethyl-9-oxo-6,8,10-triazatricyclo[9.4.0.0^2,7]pentadeca-1(11),2(7),3,5,12,14-hexaene-13-carbonitrile]
CCN1C(=O)N(c2c(F)cc(N3CCC(NCCO)C3)cc2F)c2cc(C#N)ccc2-c2cc(Cl)cnc21 (stereo not drawn) [1-182, 4-chloro-10-(2,6-difluoro-4-{3-[(2-hydroxyethyl)amino]pyrrolidin-1-yl}phenyl)-8-ethyl-9-oxo-6,8,10-triazatricyclo[9.4.0.0^2,7]pentadeca-1(11),2(7),3,5,12,14-hexaene-13-carbonitrile]
